From patent publication US9730943B2, “Alkoxy-substituted 2,3-dihydroimidazo[1,2-C]quinazolines” (BAYER INTELLECTUAL PROPERTY GMBH, priority 2010, dated 2017)

How the values were obtained:
PI3Kα = molecular target: T1, PI3Kα (Homo sapiens, UniProt P42336); experiment: PI3Kα kinase assay (HTRF-based PI3K inhibition assay); format: biochemical; details: for inhibition at 0.93 µM: 0.93 μM compound, read-out: PI3K alpha average % Inhibition at 0.93 μM; for IC50: complex of human p110α and human p85α, 10 μM ATP, 10 μM PIP2, read-out: average IC50 in the PI3K alpha biochemical assay
T1 construct: N-terminal His6-tagged recombinant full-length human p110α; His6 (N); purchased Millipore 14-602; host or cells: baculovirus infected Sf21 insect cells
Source text: Determination of % Inhibition and IC50 Values of Compounds in PI3Kα Kinase Assay
PI3Kα inhibitory activity of compounds of the present invention was quantified employing the HTRF-based PI3K inhibition assay as described below.
(§1) As reagents for the kinase reaction itself and the quantification of the reaction product, the PI3-Kinase HTRF Assay kit from Millipore (#33-017) was used. With this kit the phosphatidylinositol 3,4,5-trisphosphate (PIP3) generated in the kinase reaction is detected by displacement of a biotinylated ligand from an energy transfer complex consisting of a Europium-labeled anti-GST monoclonal antibody, a GST-tagged PH domain, biotinylated PIP3 and Streptavidin-Allophycocyanin (APC).
(§2) For the assay 50 nL of a 80-fold concentrated solution of the test compound in DMSO was pipetted into a black low volume 384-well microtiter plate (Greiner Bio-One, Frickenhausen, Germany), 3 μL of a solution of PI3Kα and phosphatidylinositol-4,5-bisphosphate (PIP2, 13.8 μM=>final conc. in 4 μl reaction volume=10 μM) in 1× reaction buffer (exact composition not disclosed by the vendor) were added and the mixture was incubated for 15 min at 22° C. to allow pre-binding of the test compounds to the enzyme before the start of the kinase reaction. The amount of PI3Kα was chosen to have the enzyme reaction in the linear range and depended on the activity of the individual lot, typical concentrations in assay were in the range of 90 ng/mL. Then the kinase reaction was started by the addition of 1 μL of a solution of adenosine triphosphate (ATP, 40 μM=>final conc. in the 4 μL assay volume is 10 μM) in reaction buffer and the resulting mixture was incubated for a reaction time of 20 min at 22° C.
The reaction was stopped by the addition of 1 μL of an stop solution (containing the biotinylated PIP3 used as a tracer), then 1 μL detection mix (containing a Europium-labeled anti-GST monoclonal antibody, a GST-tagged PH domain, and Streptavidin-Allophycocyanin) was added and resulting mixture was incubated 3 h at 22° C. to allow the formation of complexes between the detection reagents and either the PIP3 generated in the kinase reaction, or the biotinylated PIP3 added with the stop solution. Subsequently, the amount of energy transfer complex consisting of a Europium-labeled anti-GST monoclonal antibody, a GST-tagged PH domain, biotinylated PIP3 and Streptavidin-Allophycocyanin (APC) was evaluated by measurement of the resonance energy transfer from the Europium-labeled anti-GST monoclonal antibody to the Streptavidin-Allophycocyanin. Therefore, the fluorescence emissions at 620 nm and 665 nm after excitation at 350 nm were measured using a TR-FRET reader, e.g., a Pherastar (BMG Labtechnologies, Offenburg, Germany) or a Viewlux (Perkin-Elmer). The ratio of the emissions at 665 nm and at […] was taken as the measure for the amount of biotinylated PIP3 bound to the GST-tagged PH domain, which is negatively correlated with the amount of PIP3 generated. […] Normally test compounds were tested on the same microtiter plate at 10 different concentrations in the range of 25 μM to 1.3 nM (25 μM, 8.3 μM, 2.8 μM, 0.93 μM, 0.31 μM, 103 nM, 34 nM, 11 nM, 3.8 nM and 1.3 nM, a dilution series prepared before the assay at the level of the 80-fold conc. stock solutions by serial 1:3 dilutions) in duplicate values for each concentration and […] values were calculated by a 4-parameter fit using in-house software.

PI3Kβ = molecular target: T2, PI3Kβ (Homo sapiens, UniProt P42338); experiment: PI3Kβ kinase assay (HTRF based PI3K inhibition assay); format: biochemical; details: for inhibition at 0.93 µM: 0.93 μM compound, read-out: PI3K beta average % Inhibition at 0.93 μM; for IC50: complex of human p110β and human p85α, 10 μM ATP, 10 μM PIP2, read-out: average IC50 in the PI3K beta biochemical assay; for PI3K beta average IC50/ PI3K alpha average IC50: ratio of PI3K beta IC50 to PI3K alpha IC50 (A2 and A1)
T2 construct: N-terminal His6-tagged recombinant full-length human p110β; His6 (N); purchased Millipore 14-603; host or cells: baculovirus infected Sf21 insect cells
Source text: Determination of % Inhibition and IC50 Values of Compounds in PI3Kβ Kinase Assay
PI3Kβ inhibitory activity of compounds of the present invention was quantified employing the HTRF based PI3K inhibition assay as described below.
as §1
as §2, with “3 μl” for “3 μL”, “of PI3Kβ” for “of PI3Kα”, “of 120” for “of 90”, “4 μl” for “4 μL”
The reaction was stopped by the addition of 1 μL of an stop solution (containing the biotinylated PIP3 used as a tracer). Then 1 μL detection mix (containing a Europium-labeled anti-GST monoclonal antibody, a GST-tagged PH domain, and Streptavidin-Allophycocyanin) was added and resulting mixture was incubated for 3 h at 22° C. to allow the formation of complexes between the detection reagents and either the PIP3 generated in the kinase reaction, or the biotinylated PIP3 added with the stop solution. Subsequently the amount of energy transfer complex consisting of a Europium-labeled anti-GST monoclonal antibody, a GST-tagged PH domain, biotinylated PIP3 and Streptavidin-Allophycocyanin (APC) was evaluated by measurement of the resonance energy transfer from the Europium-labeled anti-GST monoclonal antibody to the Streptavidin-Allophycocyanin. Therefore, the fluorescence emissions at 620 nm and 665 nm after excitation at 350 nm were measured using a TR-FRET reader, e.g., a Pherastar (BMG Labtechnologies, Offenburg, Germany) or a Viewlux (Perkin-Elmer). The ratio of the emissions at 665 nm and at […] were taken as the measure for the amount of biotinylated PIP3 bound to the GST-tagged PH domain, which is negatively correlated with the amount of PIP3 generated.

T1 sequence (P42336 whole entry): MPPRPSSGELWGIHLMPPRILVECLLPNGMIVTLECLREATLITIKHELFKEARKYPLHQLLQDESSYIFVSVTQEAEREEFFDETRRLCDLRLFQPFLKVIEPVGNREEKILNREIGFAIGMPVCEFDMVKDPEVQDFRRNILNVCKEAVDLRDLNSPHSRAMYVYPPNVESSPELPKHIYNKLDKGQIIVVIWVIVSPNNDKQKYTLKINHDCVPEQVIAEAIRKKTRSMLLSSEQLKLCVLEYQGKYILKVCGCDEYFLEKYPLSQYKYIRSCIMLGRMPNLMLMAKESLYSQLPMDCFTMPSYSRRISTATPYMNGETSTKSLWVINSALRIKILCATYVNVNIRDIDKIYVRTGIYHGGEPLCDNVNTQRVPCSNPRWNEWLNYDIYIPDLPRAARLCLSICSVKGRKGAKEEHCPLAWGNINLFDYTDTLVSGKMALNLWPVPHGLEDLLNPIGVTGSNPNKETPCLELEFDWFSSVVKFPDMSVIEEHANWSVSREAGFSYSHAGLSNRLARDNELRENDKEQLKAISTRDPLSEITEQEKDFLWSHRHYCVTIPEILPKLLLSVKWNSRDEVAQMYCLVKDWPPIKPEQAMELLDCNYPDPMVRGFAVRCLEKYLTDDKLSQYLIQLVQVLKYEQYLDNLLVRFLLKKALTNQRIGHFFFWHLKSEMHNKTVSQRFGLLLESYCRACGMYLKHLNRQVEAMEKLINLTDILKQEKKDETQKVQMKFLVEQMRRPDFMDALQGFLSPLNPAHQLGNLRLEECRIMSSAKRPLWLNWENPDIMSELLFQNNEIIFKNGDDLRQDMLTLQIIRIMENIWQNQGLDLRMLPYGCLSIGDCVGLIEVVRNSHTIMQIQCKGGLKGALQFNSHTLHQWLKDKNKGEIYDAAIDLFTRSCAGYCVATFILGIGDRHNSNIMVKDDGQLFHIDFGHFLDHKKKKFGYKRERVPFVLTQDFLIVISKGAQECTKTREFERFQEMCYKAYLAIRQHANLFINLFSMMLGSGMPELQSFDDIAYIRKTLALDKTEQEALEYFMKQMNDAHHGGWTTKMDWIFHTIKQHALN
T1 sequence (P27986 whole entry partner): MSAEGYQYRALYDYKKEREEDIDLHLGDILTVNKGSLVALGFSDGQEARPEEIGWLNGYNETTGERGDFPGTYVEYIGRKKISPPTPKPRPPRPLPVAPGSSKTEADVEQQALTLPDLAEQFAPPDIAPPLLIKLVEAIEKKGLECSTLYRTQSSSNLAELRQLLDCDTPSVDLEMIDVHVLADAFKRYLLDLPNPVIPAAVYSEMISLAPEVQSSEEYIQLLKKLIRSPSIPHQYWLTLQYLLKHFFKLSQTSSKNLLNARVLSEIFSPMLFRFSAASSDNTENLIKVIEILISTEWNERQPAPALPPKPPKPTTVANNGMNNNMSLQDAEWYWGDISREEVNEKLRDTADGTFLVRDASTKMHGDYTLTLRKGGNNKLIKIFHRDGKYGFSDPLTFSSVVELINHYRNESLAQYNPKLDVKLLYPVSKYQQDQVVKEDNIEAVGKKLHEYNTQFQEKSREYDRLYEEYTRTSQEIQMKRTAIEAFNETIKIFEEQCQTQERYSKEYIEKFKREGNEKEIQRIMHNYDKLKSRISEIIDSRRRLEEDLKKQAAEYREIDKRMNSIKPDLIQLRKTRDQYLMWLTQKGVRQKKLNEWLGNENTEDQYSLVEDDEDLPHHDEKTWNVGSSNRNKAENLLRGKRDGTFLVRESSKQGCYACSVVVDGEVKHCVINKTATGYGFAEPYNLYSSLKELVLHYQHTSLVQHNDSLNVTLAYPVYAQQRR
T2 sequence (P42338 whole entry): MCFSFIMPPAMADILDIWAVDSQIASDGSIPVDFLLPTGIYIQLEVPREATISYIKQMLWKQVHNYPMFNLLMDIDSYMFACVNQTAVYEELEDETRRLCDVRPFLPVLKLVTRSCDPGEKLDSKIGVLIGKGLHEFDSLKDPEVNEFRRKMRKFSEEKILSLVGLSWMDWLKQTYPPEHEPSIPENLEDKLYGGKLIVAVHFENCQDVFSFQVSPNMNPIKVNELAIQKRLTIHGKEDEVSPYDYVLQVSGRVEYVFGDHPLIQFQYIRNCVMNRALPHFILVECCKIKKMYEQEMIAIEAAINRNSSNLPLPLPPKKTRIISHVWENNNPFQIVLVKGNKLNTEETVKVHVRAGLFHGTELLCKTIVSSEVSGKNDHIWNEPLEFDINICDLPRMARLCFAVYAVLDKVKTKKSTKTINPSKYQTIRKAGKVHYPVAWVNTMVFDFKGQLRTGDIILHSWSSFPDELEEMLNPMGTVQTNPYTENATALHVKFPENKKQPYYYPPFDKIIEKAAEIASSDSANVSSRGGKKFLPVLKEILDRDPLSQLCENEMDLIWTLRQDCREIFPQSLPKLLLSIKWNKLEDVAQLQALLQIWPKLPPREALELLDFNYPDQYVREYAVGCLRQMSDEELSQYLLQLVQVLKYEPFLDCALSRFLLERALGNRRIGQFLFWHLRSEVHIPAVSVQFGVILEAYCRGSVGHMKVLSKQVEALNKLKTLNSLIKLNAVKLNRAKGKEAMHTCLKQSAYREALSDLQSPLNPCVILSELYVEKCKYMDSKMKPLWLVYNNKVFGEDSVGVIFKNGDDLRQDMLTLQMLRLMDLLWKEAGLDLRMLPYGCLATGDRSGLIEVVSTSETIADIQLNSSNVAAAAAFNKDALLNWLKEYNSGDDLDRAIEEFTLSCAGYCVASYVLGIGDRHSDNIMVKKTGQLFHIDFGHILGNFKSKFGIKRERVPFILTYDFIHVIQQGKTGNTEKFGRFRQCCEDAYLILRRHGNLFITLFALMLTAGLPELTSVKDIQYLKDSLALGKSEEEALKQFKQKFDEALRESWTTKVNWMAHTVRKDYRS
T2 sequence (P27986 whole entry partner): as the sequence (P27986 whole entry partner) above

Compound	inhibition at 0.93 µM (PI3Kα) [%]	IC50 (PI3Kα) [nM]	inhibition at 0.93 µM (PI3Kβ) [%]	IC50 (PI3Kβ) [nM]	PI3K beta average IC50/ PI3K alpha average IC50 (PI3Kβ)
C[C@@H]1CN(C[C@@](C)(O)COc2ccc3c(c2OCCc2ccc(F)cc2)N=C(NC(=O)c2cccnc2)N2CCN=C32)C[C@H](C)O1 (relative stereo) [Example 12, rel-N-{8-({(2R)-3-[(2R,6S)-2,6-Dimethylmorpholin-4-yl]-2-hydroxy-2-methylpropyl}oxy)-7-[2-(4-fluorophenyl)ethoxy]-2,3-dihydroimidazo[1,2-c]quinazolin-5-yl}pyridine-3-carboxamide]	104	10 to 50	100	> 50	3.69
COc1c(OC[C@H](O)CN2CCOCC2)ccc2c1N=C(NC(=O)c1cccnc1)N1CCN=C21 [Example 2, N-(8-{[(2R)-2-hydroxy-3-(morpholin-4-yl)propyl]oxy}-7-methoxy-2,3-dihydroimidazo[1,2-c]quinazolin-5-yl)pyridine-3-carboxamide]			94.4		
CC(C)N(C[C@@H](O)COc1ccc2c(c1OCCc1ccc(F)cc1)N=C(NC(=O)c1cccnc1)N1CCN=C21)C(C)C [Example 7, N-(8-{[(2R)-3-(dipropan-2-ylamino)-2-hydroxypropyl]oxy}-7-[2-(4-fluorophenyl)ethoxy]-2,3-dihydroimidazo[1,2-c]quinazolin-5-yl)pyridine-3-carboxamide]	91.5	< 10	90	10 to 50	2.78
C[C@@H]1CN(C[C@@H](O)COc2ccc3c(c2OCCc2ccc(F)cc2)N=C(NC(=O)c2cccnc2)N2CCN=C32)C[C@H](C)O1 [Example 8, N-{8-({(2R)-3-[(2R,6S)-2,6-Dimethylmorpholin-4-yl]-2-hydroxypropyl}oxy)-7-[2-(4-fluorophenyl)ethoxy]-2,3-dihydroimidazo[1,2-c]quinazolin-5-yl}pyridine-3-carboxamide]	99.9	10 to 50	96.7	10 to 50	2.28
O=C(NC1=Nc2c(ccc(OCC(O)CN3CCOCC3)c2OCCc2ccc(F)cc2)C2=NCCN12)c1cccnc1 (stereo not shown) [Example 9, N-{7-[2-(4-Fluorophenyl)ethoxy]-8-[2-hydroxy-3-(morpholin-4-yl)propoxy]-2,3-dihydroimidazo[1,2-c]quinazolin-5-yl}pyridine-3-carboxamide]	98.8	10 to 50	102	< 10	0.63

Further lines, results first:

inhibition at 0.93 µM (PI3Kα) [%]	IC50 (PI3Kα) [nM]	inhibition at 0.93 µM (PI3Kβ) [%]	IC50 (PI3Kβ) [nM]	PI3K beta average IC50/ PI3K alpha average IC50 (PI3Kβ)	Compound
93.2	< 10	81.6	> 50	8.95	COc1c(OC[C@](C)(O)CN2C[C@@H](C)O[C@@H](C)C2)ccc2c1N=C(NC(=O)c1cccnc1)N1CCN=C21 (relative stereo) [Example 10, rel-N-[8-({(2R)-3-[(2R,6S)-2,6-Dimethylmorpholin-4-yl]-2-hydroxy-2-methylpropyl}oxy)-7-methoxy-2,3-dihydroimidazo[1,2-c]quinazolin-5-yl]pyridine-3-carboxamide]
109	< 10	95.3	10 to 50	9.66	C[C@@H]1CN(C[C@@](C)(O)COc2ccc3c(c2OCCc2ccc(F)cc2)N=C(NC(=O)c2cnc(N)nc2)N2CCN=C32)C[C@H](C)O1 (relative stereo) [Example 11, rel-2-Amino-N-{8-({(2R)-3-[(2R,6S)-2,6-dimethylmorpholin-4-yl]-2-hydroxy-2-methylpropyl}oxy)-7-[2-(4-fluorophenyl)ethoxy]-2,3-dihydroimidazo[1,2-c]quinazolin-5-yl}pyrimidine-5-carboxamide]
